# According to patent US20260200943A1, “COMPOUNDS FOR TREATING CANCER” (Genesis Therapeutics, Inc., priority 2022, published 2026):
# What was measured:
# Type in all cases: biochemical
# CDK6/CyclinD3 [1] = biological target: T1, CDK6/CyclinD3 (Homo sapiens, UniProt Q00534); assay: CDK6/CyclinD3 ChEF Assay (AQT, Table C); details: read-out: CDK6/CCND3 AQT Ki: Average Ki
# T1 construct: Wild-type, full length CDK6 in complex with wildtype, full length CyclinD3: Carna Cat #04-107; purchased Carna 04-107
# Experimental: (§1) 16 nL of 1000× compound in 100% DMSO is added to a 384-well low volume, black assay plate. 12 μL of 1.3×CDK6/CyclinD3 (Wild-type, full length CDK6 in complex with wildtype, full length CyclinD3: Carna Cat #04-107) diluted in assay buffer (54 mM Hepes, 0.012% Brij-35, 10 mM MgCl2, 0.55 mM EGTA, 1% Glycerol, 0.02% BSA, and 1.2 mM DTT) is added to the plates on top of the compound and pre-incubated for 30 minutes at room temperature. Following the incubation, 4 uL of 4×Sox-chromophore (CSox) labeled peptide substrate (AQT0258, AssayQuant) & ATP diluted in assay buffer is added to the plate to initiate the reaction. The assay is incubated at room temperature for 300 min after initiation. The CSox peptide substrate is phosphorylated by CDK6/D3 upon ATP hydrolysis.
# (§2) The fluorescent intensity measurement of the assay plate is read on a microplate reader once the assay is initiated and again at the completion of the assay. Phosphorylation of the CSox-based peptide substrate sensor results in an immediate increase in fluorescence. These raw fluorescence intensity values are normalized to calculate percent inhibition, which are fit to a four-parameter logistic curve and IC50 values are calculated. IC50 values are converted to Ki using substrate, KM^app values, and the Cheng-Prusoff equation.
# CDK4/CyclinD1 = biological target: T2, CDK4/CyclinD1 (Homo sapiens, UniProt P11802); assay: CDK4/CyclinD1 ChEF Assay (AQT, Table C); details: read-out: CDK4/CCND1 AQT Ki: Average Ki
# T2 construct: Wild-type, full length CDK4 in complex with wildtype, CyclinD1: ThermoFisher Cat #PR8064A; purchased ThermoFisher PR8064A
# Experimental: as §1, with “1.3×CDK4/CyclinD1” for “1.3×CDK6/CyclinD3”, “CDK4” for “CDK6”, “CyclinD1: ThermoFisher” for “full length CyclinD3: Carna”, “#PR8064A)” for “#04-107)”, “150” for “300”, “CDK4/D1” for “CDK6/D3”
# as §2, with “KM^ap” for “KM^app”
# CDK1/CyclinB1 = biological target: T3, CDK1/CyclinB1 (Homo sapiens, UniProt P06493); assay: CDK1/CyclinB1 ChEF Assay (AQT, Table C); details: 10xKm, read-out: CDK1/CCNB1 AQT AQT10xKm Ki: Average Ki
# T3 construct: Wild-type, full length CDK1 in complex with wildtype, full length CyclinB1: Carna Cat #04-102; purchased Carna 04-102
# Experimental: 16 nL of 1000× compound in 100% DMSO is added to a 384-well low volume, black assay plate. 12 μL of 1.3×CDK1/CyclinB1 (Wild-type, full length CDK1 in complex with wildtype, full length CyclinB1: Carna Cat #04-102) diluted in assay buffer (54 mM Hepes, 0.012% Brij-35, 10 mM MgCl2, 0.55 mM EGTA, 1% Glycerol, 0.02% BSA, and 1.2 mM DTT) is added to the plates on top of the compound and pre-incubated for 30 minutes at room temperature. Following the incubation, 4 uL of 4×Sox-chromophore (CSox) labeled peptide substrate (AQT0297, AssayQuant) & ATP diluted in assay buffer is added to the plate to initiate the reaction. The assay is incubated at room temperature for 120 min after initiation. The CSox peptide substrate is phosphorylated by CDK1/B1 upon ATP hydrolysis.
# as §2
# CDK6/CyclinD3 [2] = biological target: T1, CDK6/CyclinD3; assay: CDK6/Cyclin D3 Mobility Shift Assay (Caliper, Table B); details: read-out: CDK6/CCND3 Caliper Ki: Average Ki
# Experimental: 10 nL of 2000× compound in 100% DMSO is added to a 384-well polypropylene assay plate. 15 μL of 1.3×CDK6/D3 and 1.3× fluorescent substrate (Wild-type, full length CDK6 in complex with wildtype, full length CyclinD3: Carna Cat #04-107 and FL-Peptide 34: PerkinElmer Cat #760643) diluted in kinase buffer (50 mM Hepes, 0.01% Brij-35, 10 mM MgCl2, 1 mM EGTA, 0.05% BSA, and 2 mM DTT) is added to the plates on top of the compound, mixed, and pre-incubated for 30 minutes at room temperature. The fluorescently labeled peptide substrate is phosphorylated by CDK6/D3 upon ATP hydrolysis. Following the incubation, 5 μL of 4×ATP diluted in kinase buffer is added to the plate to initiate the reaction. Following the 30-minute incubation, the reaction is stopped by adding 75 μL of stopping buffer containing 0.5 M EDTA.
# The assay plate is then read on a Lab Chip EZ Reader which separates the fluorescently labeled substrate and product peptides through a mobility difference. The phosphorylation of the substrate imparts a negative charge, which allows differences in separation as both are pulled through the microfluidic chip. The ratio of substrate and product values are used to generate percent conversion. These raw percent conversion values are normalized to calculate percent inhibition, which are fit to a four-parameter logistic curve and IC50 values are calculated. IC50 values are converted to Ki through using substrate and Km^app values, and the Cheng-Prusoff equation.
# T3 sequence (P06493 whole entry): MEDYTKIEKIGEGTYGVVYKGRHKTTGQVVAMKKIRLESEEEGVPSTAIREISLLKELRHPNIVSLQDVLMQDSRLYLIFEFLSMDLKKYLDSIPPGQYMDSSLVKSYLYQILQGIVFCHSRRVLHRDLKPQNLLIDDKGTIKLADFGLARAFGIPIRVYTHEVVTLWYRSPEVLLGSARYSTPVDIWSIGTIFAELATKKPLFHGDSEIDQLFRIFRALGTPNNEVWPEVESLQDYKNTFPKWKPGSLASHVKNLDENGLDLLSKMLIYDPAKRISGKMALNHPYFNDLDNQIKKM
# T3 sequence (P14635 whole entry partner): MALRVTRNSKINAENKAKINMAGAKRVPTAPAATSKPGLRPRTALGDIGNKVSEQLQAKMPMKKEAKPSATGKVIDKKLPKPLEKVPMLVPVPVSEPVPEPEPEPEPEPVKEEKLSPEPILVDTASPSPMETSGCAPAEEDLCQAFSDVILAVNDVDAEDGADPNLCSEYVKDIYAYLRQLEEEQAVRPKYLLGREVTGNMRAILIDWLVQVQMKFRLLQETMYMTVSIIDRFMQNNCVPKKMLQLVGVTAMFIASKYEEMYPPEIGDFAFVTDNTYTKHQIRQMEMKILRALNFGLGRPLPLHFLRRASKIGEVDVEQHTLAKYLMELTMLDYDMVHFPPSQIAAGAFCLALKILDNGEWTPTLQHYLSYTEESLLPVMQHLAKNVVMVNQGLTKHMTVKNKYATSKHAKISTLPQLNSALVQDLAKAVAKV
# T1 sequence (Q00534 whole entry): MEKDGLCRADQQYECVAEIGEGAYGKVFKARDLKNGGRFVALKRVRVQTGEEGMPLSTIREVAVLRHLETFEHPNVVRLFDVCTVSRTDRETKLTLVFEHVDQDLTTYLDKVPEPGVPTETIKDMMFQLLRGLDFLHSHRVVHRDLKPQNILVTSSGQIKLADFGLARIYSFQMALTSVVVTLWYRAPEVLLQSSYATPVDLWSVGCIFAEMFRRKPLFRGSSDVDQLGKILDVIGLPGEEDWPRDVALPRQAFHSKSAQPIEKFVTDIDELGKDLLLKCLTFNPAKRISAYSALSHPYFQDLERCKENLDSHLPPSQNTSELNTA
# T1 sequence (P30281 whole entry partner): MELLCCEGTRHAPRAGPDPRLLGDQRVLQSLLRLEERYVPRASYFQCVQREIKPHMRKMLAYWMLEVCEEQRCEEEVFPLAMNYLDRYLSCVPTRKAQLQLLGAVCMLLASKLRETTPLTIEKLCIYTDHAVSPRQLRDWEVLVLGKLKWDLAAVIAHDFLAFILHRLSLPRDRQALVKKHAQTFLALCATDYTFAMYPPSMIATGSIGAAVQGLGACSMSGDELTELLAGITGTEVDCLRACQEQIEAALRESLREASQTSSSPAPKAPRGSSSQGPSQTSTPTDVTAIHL
# T2 sequence (P11802 whole entry): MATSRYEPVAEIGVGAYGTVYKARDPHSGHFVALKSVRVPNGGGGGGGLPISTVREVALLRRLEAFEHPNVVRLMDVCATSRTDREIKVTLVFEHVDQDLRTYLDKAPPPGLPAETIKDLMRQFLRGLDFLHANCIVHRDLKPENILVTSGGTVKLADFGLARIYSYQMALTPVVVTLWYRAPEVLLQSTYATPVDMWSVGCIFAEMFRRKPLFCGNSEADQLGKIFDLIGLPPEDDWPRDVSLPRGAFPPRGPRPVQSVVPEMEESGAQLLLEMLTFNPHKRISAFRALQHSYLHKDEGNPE
# T2 sequence (P24385 whole entry partner): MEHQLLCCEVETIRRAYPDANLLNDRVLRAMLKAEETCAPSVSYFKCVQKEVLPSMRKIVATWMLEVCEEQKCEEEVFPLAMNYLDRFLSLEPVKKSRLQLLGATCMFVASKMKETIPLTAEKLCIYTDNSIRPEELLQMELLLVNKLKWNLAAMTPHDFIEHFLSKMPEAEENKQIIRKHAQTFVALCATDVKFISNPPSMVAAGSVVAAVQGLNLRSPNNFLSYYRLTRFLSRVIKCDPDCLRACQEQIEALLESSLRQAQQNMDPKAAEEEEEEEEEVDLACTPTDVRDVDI
SMILES,Ki (CDK6/CyclinD3 [1]),Ki (CDK4/CyclinD1),Ki (CDK1/CyclinB1),Ki (CDK6/CyclinD3 [2])
"NS(=O)(=O)c1ccc2cc1OCCCCCNC(=O)O[C@@H]1CC[C@@H](C1)c1cnc(nc1)N2 (stereo in doubt) [Compound 105, rel-(2S,5R)-7-oxo-6,14-dioxa-8,20,22,25-tetraazatetracyclo[19.2.2.1^{2,5}.1^{15,19}]heptacosa-1(23),15,17,19(26),21,24-hexaene-16-sulfonamide]",≥ 0.1 µM,≥ 0.1 µM,0.001 to 0.025 µM,
"O=C1NCC=CCNS(=O)(=O)c2ccc(c(F)c2)Nc2cc([nH]n2)[C@H]2CC[C@H](C2)O1 [Compound 102, (1^1S,1^3R,2^4Z)-4^2-fluoro-2^1H-13-oxa-5-thia-3,6,11-triaza-2(5,3)-pyrazola-4(1,4)-benzena-1(1,3)-cyclopentanacyclotridecaphan-8-en-12-one 5,5-dioxide]",,,,≥ 0.1 µM
"O=C1NCCCCNS(=O)(=O)c2ccc(c(F)c2)Nc2cc([nH]n2)[C@H]2CC[C@H](C2)O1 [Compound 99, (1^1S, 1^3R,Z)-4^2-fluoro-2^1H-13-oxa-5-thia-3,6,11-triaza-2(5,3)-pyrazola-4(1,4)-benzena-1(1,3)-cyclopentanacyclotridecaphan-12-one 5,5-dioxide]",,,,0.025 to 0.1 µM

# Second part, the molecule after the results:
Ki (CDK6/CyclinD3 [1]),Ki (CDK4/CyclinD1),Ki (CDK1/CyclinB1),Ki (CDK6/CyclinD3 [2]),SMILES
,,0.001 to 0.025 µM,,"O=C1NCCCCCCn2cc(cn2)S(=O)(=O)N2CCC(CC2)Nc2cc([nH]n2)[C@H]2CC[C@H](C2)O1 [Compound 97, (1^1S,1^3R,2^4Z,6^4E)-2^1H,6^1H-15-oxa-5-thia-3,13-diaza-4(4,1)-piperidina-2(5,3),6(4,1)-dipyrazola-1(1,3)-cyclopentanacyclopentadecaphan-14-one 5,5-dioxide]"
,,,0.025 to 0.1 µM,O=C1NCCCCCCCNS(=O)(=O)c2ccc(c(F)c2)Nc2cc([nH]n2)[C@H]2CC[C@H](C2)O1 [Compound 92]
≥ 0.1 µM,≥ 0.1 µM,0.001 to 0.025 µM,≥ 0.1 µM,"O=C1NCCCCCCNS(=O)(=O)c2ccc(c(F)c2)Nc2cc([nH]n2)[C@H]2CC[C@H](C2)O1 [Compound 91, (1^1S,1^3R,Z)-4^2-fluoro-2^1H-15-oxa-5-thia-3,6,13-triaza-2(5,3)-pyrazola-4(1,4)-benzena-1(1,3)-cyclopentanacyclopentadecaphan-14-one 5,5-dioxide]"
